Data published in ChEMBL document CHEMBL5316265, “Discovery of Clinical Candidate AZD0095, a Selective Inhibitor of Monocarboxylate Transporter 4 (MCT4) for Oncology” (J Med Chem, 2023).
Values after ≈ are worked out from the molar mass of the structure shown.

Experiments:
[1] = Aqueous solubility of the compound in pH 7.4 buffer; assay type: physicochemical
[2] = Lipophilicity, logD of the compound at pH 7.4; assay type: physicochemical; details: buffer
[3] = target: Voltage-gated inwardly rectifying potassium channel KCNH2 (Homo sapiens, UniProt Q12809); assay: Inhibition of human ERG; assay type: toxicity
[4] = Clearance in rat; assay type: ADME; details: in vivo
[5] = Metabolic stability in human hepatocytes measured per million cells; assay type: ADME, cell-based, Hepatocyte; details: read-out: CLH
[6] = Metabolic stability in rat hepatocytes measured per million cells; assay type: ADME, cell-based, Hepatocyte; details: read-out: CLH
[7] = Oral bioavailability in rat; assay type: ADME, organism-based; details: in vivo
[8] = Efflux ratio of apparent permeability basolateral to apical side over apical to basolateral side in human Caco-2 cells; assay type: ADME, cell-based
[9] = target: T1, Monocarboxylate transporter 4 (Homo sapiens, UniProt O15427); assay: Inhibition of MCT4 in human SK-BR-3 cells assessed as inhibition of lactate efflux incubated for 4 hrs by automated microplate reader analysis; assay type: cell-based
T1 sequence (O15427 whole entry): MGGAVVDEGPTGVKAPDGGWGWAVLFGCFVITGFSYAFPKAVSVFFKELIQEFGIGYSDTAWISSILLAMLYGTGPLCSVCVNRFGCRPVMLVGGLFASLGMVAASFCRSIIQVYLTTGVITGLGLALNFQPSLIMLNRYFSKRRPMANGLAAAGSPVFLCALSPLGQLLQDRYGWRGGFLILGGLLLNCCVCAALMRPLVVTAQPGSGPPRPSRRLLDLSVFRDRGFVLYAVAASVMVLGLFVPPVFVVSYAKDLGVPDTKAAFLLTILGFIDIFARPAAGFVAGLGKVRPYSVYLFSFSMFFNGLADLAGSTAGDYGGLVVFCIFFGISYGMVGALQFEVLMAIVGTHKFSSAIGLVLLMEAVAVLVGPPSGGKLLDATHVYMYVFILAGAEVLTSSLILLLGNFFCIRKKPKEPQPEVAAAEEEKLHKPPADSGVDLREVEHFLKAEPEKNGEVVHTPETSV

[10] = Toxicity in mouse assessed as body weight loss at 100 mg/kg BID administered twice daily for 17 days via oral gavage in presence of cediranib; assay type: organism-based; details: in vivo, 408 h, time 17 day
[11] = Metabolic stability in dog hepatocytes assessed as intrinsic clearance measured per million cells; assay type: ADME, cell-based, Canis lupus familiaris, Hepatocyte; details: read-out: CLH
[12] = Plasma protein binding in rat assessed as free fraction; assay type: ADME, cell-free
[13] = Oral bioavailability in Beagle dog at 2 mg/kg; assay type: ADME, organism-based, Canis lupus familiaris; details: in vivo
[14] = Apparent permeability of the compound across apical side to basolateral side in human Caco-2 cells; assay type: ADME, cell-based
[15] = Clearance in Beagle dog at 1 mg/kg, iv; assay type: ADME, organism-based, Canis lupus familiaris; details: in vivo
[16] = Oral bioavailability in Wistar rat at 5 mg/kg; assay type: ADME, organism-based; details: in vivo
[17] = target: T2, Monocarboxylate transporter 1 (Homo sapiens, UniProt P53985); assay: Inhibition of MCT1 in human K562 cells assessed as inhibition of lactate efflux incubated for 1 hr by FLIPR method; assay type: cell-based
T2 sequence (P53985 whole entry): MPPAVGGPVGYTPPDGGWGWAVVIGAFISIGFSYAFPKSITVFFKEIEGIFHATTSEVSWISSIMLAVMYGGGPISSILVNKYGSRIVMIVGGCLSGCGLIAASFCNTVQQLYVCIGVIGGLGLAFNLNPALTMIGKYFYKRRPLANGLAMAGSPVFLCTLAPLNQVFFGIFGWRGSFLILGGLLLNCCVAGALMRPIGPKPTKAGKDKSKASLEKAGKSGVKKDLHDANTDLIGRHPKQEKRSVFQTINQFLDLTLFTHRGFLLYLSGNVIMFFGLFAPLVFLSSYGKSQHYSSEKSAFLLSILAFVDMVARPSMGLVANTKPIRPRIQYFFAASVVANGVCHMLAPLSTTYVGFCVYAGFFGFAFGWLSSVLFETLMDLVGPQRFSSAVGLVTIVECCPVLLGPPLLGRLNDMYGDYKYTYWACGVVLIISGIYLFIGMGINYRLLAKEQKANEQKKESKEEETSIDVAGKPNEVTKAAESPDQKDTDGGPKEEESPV

[18] = Plasma protein binding in dog assessed as free fraction; assay type: ADME, cell-free, Canis lupus familiaris
[19] = Toxicity in mouse assessed as body weight loss at 100 mg/kg BID administered twice daily for 17 days via oral gavage; assay type: organism-based; details: in vivo, 408 h, time 17 day
NCI-H358 = assay: Antiproliferative activity against human NCI-H358 cells assessed as cell growth inhibition; assay type: functional
[20] = Clearance in Wistar rat at 2 mg/kg, iv; assay type: ADME, organism-based; details: in vivo
[21] = Metabolic stability in human hepatocytes assessed as intrinsic clearance measured per million cells; assay type: ADME, cell-based, Hepatocyte; details: read-out: CLH
[22] = Plasma protein binding in human assessed as free fraction; assay type: ADME, cell-free
[23] = Thermodynamic solubility of the compound in FaSSIF using crystalline form of sample at pH 6.5; assay type: physicochemical; details: read-out: Therm_solubility

Chain of Voltage-gated inwardly rectifying potassium channel KCNH2 (Q12809 whole entry): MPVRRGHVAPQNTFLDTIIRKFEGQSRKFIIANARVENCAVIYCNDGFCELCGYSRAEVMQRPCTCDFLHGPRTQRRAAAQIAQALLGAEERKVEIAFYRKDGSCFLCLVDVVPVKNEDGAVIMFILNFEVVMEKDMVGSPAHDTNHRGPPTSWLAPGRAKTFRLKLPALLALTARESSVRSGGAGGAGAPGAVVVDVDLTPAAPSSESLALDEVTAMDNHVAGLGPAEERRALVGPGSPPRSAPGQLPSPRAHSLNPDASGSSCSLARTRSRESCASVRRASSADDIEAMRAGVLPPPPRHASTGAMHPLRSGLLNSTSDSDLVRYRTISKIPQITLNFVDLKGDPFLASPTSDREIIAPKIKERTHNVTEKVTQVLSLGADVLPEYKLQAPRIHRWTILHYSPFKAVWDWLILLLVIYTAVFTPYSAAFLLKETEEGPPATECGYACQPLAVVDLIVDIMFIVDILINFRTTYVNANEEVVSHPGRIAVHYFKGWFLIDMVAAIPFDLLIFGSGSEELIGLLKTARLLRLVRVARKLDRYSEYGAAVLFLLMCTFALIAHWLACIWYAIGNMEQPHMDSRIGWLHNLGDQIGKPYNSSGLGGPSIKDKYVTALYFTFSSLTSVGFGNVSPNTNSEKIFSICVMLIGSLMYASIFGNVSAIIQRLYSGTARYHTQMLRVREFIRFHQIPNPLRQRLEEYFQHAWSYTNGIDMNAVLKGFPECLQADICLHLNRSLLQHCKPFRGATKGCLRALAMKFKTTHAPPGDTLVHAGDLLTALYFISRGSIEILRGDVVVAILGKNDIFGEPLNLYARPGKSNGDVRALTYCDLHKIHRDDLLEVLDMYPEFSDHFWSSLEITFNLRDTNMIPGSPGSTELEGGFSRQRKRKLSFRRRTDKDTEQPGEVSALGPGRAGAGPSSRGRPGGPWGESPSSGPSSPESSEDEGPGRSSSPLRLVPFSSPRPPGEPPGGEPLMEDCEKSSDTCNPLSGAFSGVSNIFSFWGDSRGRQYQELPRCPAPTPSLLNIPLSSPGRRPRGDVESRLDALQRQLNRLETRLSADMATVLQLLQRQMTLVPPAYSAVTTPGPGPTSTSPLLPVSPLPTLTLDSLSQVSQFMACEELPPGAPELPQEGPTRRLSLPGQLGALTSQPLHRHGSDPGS

`Cc1nc2nc(C)c(CCNC(=O)c3ccc(-c4ccccc4)cc3)c(C)n2n1` showed a solubility [1] of 2 µM (≈ 0.771 µg/mL) and a logD [2] of 3.4.
Compound `Cc1nc2nc(C)c(CCNC(=O)c3cnc(-c4ccc([C@@H]5COCCN5C)cc4)cn3)c(C)n2n1` has a solubility [1] of over 300 µM and a logD [2] of 1.9.
In the case of `Cc1nc2nc(C)c(C[C@@H]3CCN(c4ccc(-c5ccc(CN6CCOCC6)nn5)cc4)C3)c(C)n2n1`, the IC50 [3] is reported as 13 µM and the logD [2] is reported as 2.3.
`Cc1nc2ncnn2c(C)c1CCC(=O)Nc1nnc(-c2ccc(C(C)C)cc2)s1` showed a logD [2] of 3.7.
Work on `Cc1nc2nc(C)c(CCNC(=O)c3cnc(-c4ccc([C@H]5COCCN5C)cc4)cn3)c(C)n2n1` yielded a solubility [1] of 224 µM (≈ 109 µg/mL) and a logD [2] of 1.9.
Work on `Cc1nc2nc(C)c(CCNC(=O)c3cnc(-c4ccccc4)cn3)c(C)n2n1` yielded a solubility [1] of 3 µM (≈ 1.16 µg/mL) and a logD [2] of 2.4.
With `Cc1nc2nc(C)c(C[C@@H]3CCN(c4cnc(-c5ccc(CN6CCN(C)CC6)cc5)cn4)C3)c(C)n2n1` the clearance [4] was 29 mL/min/kg, the hepatocyte CLint [5] was 1.9 µL/min/1e6 cells and the IC50 [3] was over 24 µM. For the same compound, the hepatocyte CLint [6] was under 2 µL/min/1e6 cells, the logD [2] was 2 and the bioavailability [7] was 61%.
For `Cc1nc2nc(C)c(CCC(=O)Nc3nnc(-c4ccccc4)s3)c(C)n2n1`, the logD [2] was 2.8.
Compound `CC(=O)N1CCN(Cc2ccc(-c3ccc(N4CC[C@@H](Oc5c(C)nc6nc(C)nn6c5C)C4)cc3)nn2)CC1` has an IC50 [3] of over 33 µM and a logD [2] of 1.4.
For `Cc1nc2nc(C)c(O[C@@H]3CCN(c4ccc(-c5ccc(CN6CCN(C)CC6)nn5)cc4)C3)c(C)n2n1`, the IC50 [3] was over 33 µM and the logD [2] was 1.4.
Work on `Cc1nc2nc(C)c(CCNC(=O)c3nnc(-c4ccccc4)s3)c(C)n2n1` yielded a logD [2] of 2.5.
`Cc1nc2nc(C)c(C[C@@H]3CCN(c4ccc(-c5cnc(CN6CCOCC6)cn5)cc4)C3)c(C)n2n1` gave a logD [2] of 2.7.
Compound `Cc1nc2nc(C)c(C[C@@H]3CCN(c4cnc(-c5ccc(CN6CCOCC6)cc5)cn4)C3)c(C)n2n1` has an efflux ratio [8] of 1.1, an IC50 [9] of under 0.38 nM and a clearance [4] of 53 mL/min/kg. It also gave a hepatocyte CLint [5] of 3.4 µL/min/1e6 cells, an IC50 [3] of 1.8 µM and a hepatocyte CLint [6] of 13 µL/min/1e6 cells. It also gave a logD [2] of 2.6 and a bioavailability [7] of 47%.
For `Cc1nc2ncnn2c(C)c1CCC(=O)Nc1nnc(-c2ccccc2)s1`, the logD [2] was 2.5.
`Cc1nc2nc(C)c(C[C@@H]3CCN(c4ccc(-c5ccc(CN6CCN(C)CC6)nn5)cc4)C3)c(C)n2n1` showed an IC50 [3] of over 33 µM and a logD [2] of 1.8.
Compound `Cc1nc2nc(C)c(CCNC(=O)c3cnc(-c4ccc(CN5CCOCC5)cc4)cn3)c(C)n2n1` has a clearance [4] of 31 mL/min/kg, a hepatocyte CLint [5] of 2.5 µL/min/1e6 cells and an IC50 [3] of 24 µM. The hepatocyte CLint [6] was 17 µL/min/1e6 cells, the solubility [1] was 138 µM (≈ 67.1 µg/mL) and the logD [2] was 1.8. It also gave a bioavailability [7] of 34%.
In the case of `Cc1nc2nc(C)c(O[C@@H]3CCN(c4ccc(-c5ccc(CN6CCOCC6)nn5)cc4)C3)c(C)n2n1`, the Activity [10] is reported as “Non-Toxic”, the hepatocyte CLint [11] is reported as 3.3 µL/min/1e6 cells and the fraction unbound [12] is reported as 0.3. For the same compound, the bioavailability [13] was 84%, the Papp A→B [14] was 13 ×10⁻⁶ cm/s and the clearance [15] was 14 mL/min/kg. The bioavailability [16] was 106%, the IC50 [3] was 29 µM and the IC50 [17] was over 30 µM. For the same compound, the fraction unbound [18] was 0.39, the Activity [19] was “Non-Toxic” and the GI50 (NCI-H358) was 26 nM. It also gave a clearance [20] of 15 mL/min/kg, a hepatocyte CLint [21] of 1.9 µL/min/1e6 cells and a logD [2] of 1.8. The fraction unbound [22] was 0.32 and the solubility thermodynamic [23] was 839 µM (≈ 420 µg/mL).
